Test results published in the supplement of paper PMC11451515.

Test system: NOMO1
Experiment: cell viability relative to DMSO control; higher = less cytotoxic
Details: 48 h
Method in brief: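 Viability is a per-plate percentage relative to DMSO wells, with cell-free wells as background. CellTiter-Glo One luminescence was read after 48 h at 37°C on 1536-well plates (5 μl) of NOMO1 or SEM (500 cells/well) or P12-Ichikawa (1000 cells/well) leukemia cells. The cells had been adapted for at least four passages in each medium and pin-dosed with library compounds in DMSO from 47 μM to 0.79 nM in 11 threefold steps.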

[1] = HPLM + 10% dialyzed FBS, 0.000781 µM
[2] = HPLM + 10% dialyzed FBS, 0.00234 µM
[3] = HPLM + 10% dialyzed FBS, 0.00702 µM
[4] = HPLM + 10% dialyzed FBS, 0.0211 µM
[5] = HPLM + 10% dialyzed FBS, 0.0632 µM
[6] = HPLM + 10% dialyzed FBS, 0.19 µM
[7] = HPLM + 10% dialyzed FBS, 0.569 µM
[8] = HPLM + 10% dialyzed FBS, 1.71 µM
[9] = HPLM + 10% dialyzed FBS, 5.12 µM
[10] = HPLM + 10% dialyzed FBS, 15.4 µM
[11] = HPLM + 10% dialyzed FBS, 46.1 µM
[12] = RPMI 5 mM glucose + 10% FBS, 0.000781 µM
[13] = RPMI 5 mM glucose + 10% FBS, 0.00234 µM
[14] = RPMI 5 mM glucose + 10% FBS, 0.00702 µM
[15] = RPMI 5 mM glucose + 10% FBS, 0.0211 µM
[16] = RPMI 5 mM glucose + 10% FBS, 0.0632 µM
[17] = RPMI 5 mM glucose + 10% FBS, 0.19 µM
[18] = RPMI 5 mM glucose + 10% FBS, 0.569 µM
[19] = RPMI 5 mM glucose + 10% FBS, 1.71 µM
[20] = RPMI 5 mM glucose + 10% FBS, 5.12 µM
[21] = RPMI 5 mM glucose + 10% FBS, 15.4 µM
[22] = RPMI 5 mM glucose + 10% FBS, 46.1 µM
[23] = RPMI 5 mM glucose + 10% dialyzed FBS, 0.000781 µM
[24] = RPMI 5 mM glucose + 10% dialyzed FBS, 0.00234 µM
[25] = RPMI 5 mM glucose + 10% dialyzed FBS, 0.00702 µM
[26] = RPMI 5 mM glucose + 10% dialyzed FBS, 0.0211 µM
[27] = RPMI 5 mM glucose + 10% dialyzed FBS, 0.0632 µM
[28] = RPMI 5 mM glucose + 10% dialyzed FBS, 0.19 µM
[29] = RPMI 5 mM glucose + 10% dialyzed FBS, 0.569 µM
[30] = RPMI 5 mM glucose + 10% dialyzed FBS, 1.71 µM
[31] = RPMI 5 mM glucose + 10% dialyzed FBS, 5.12 µM
[32] = RPMI 5 mM glucose + 10% dialyzed FBS, 15.4 µM
[33] = RPMI 5 mM glucose + 10% dialyzed FBS, 46.1 µM

Compound | cell viability [1] | cell viability [2] | cell viability [3] | cell viability [4] | cell viability [5] | cell viability [6] | cell viability [7] | cell viability [8] | cell viability [9] | cell viability [10] | cell viability [11] | cell viability [12] | cell viability [13] | cell viability [14] | cell viability [15] | cell viability [16] | cell viability [17] | cell viability [18] | cell viability [19] | cell viability [20] | cell viability [21] | cell viability [22] | cell viability [23] | cell viability [24] | cell viability [25] | cell viability [26] | cell viability [27] | cell viability [28] | cell viability [29] | cell viability [30] | cell viability [31] | cell viability [32] | cell viability [33]
N[C@@H](CC(=O)N1CCn2c(nnc2C(F)(F)F)C1)Cc1cc(F)c(F)cc1F | 119% | 98.7% | 111% | 119% | 100% | 106% | 103% | 102% | 109% | 94.9% | 83.5% | 83.3% | 97.4% | 84.6% | 86.4% | 92.4% | 84.8% | 86% | 83.4% | 96.2% | 85.1% | 82.9% | 103% | 96.3% | 99.5% | 95.2% | 106% | 91.7% | 93.4% | 100% | 96.2% | 94.8% | 79.5%
Cc1[nH]c(/C=C2\C(=O)Nc3ccc([S+](=O)([O-])Cc4c(Cl)cccc4Cl)cc32)c(C)c1C(=O)N1CCC[C@@H]1CN1CCCC1 | 100% | 112% | 97.5% | 83% | 92.8% | 96.4% | 98.2% | 84.3% | 81.2% | 87.7% | 59.9% | 108% | 101% | 89.1% | 93.2% | 88% | 99.9% | 99.3% | 100% | 90.5% | 83.4% | 79.6% | 98.2% | 89.8% | 90.2% | 94.4% | 92.7% | 102% | 85.9% | 91.2% | 86.4% | 84.8% | 72.6%
COc1cc2ncnc(Nc3cccc(Br)c3)c2cc1OC | 90.4% | 98.3% | 101% | 98.9% | 109% | 120% | 108% | 118% | 98.2% | 94.5% | 86.1% | 98% | 95.9% | 106% | 110% | 109% | 108% | 110% | 111% | 106% | 112% | 117% | 80.8% | 90.6% | 98.6% | 97.4% | 103% | 103% | 102% | 112% | 102% | 102% | 101%
Cc1ncc([N+](=O)[O-])n1CCO | 112% | 122% | 126% | 145% | 130% | 122% | 120% | 137% | 116% | 142% | 120% |  |  |  |  |  |  |  |  |  |  |  | 113% | 113% | 125% | 131% | 137% | 140% | 132% | 142% | 129% | 136% | 130%
CC(C)(C)NC(=O)[C@H]1CC[C@H]2[C@@H]3CC[C@H]4NC(=O)\C=C/[C@]4(C)[C@H]3CC[C@]12C | 76.6% | 94.6% | 109% | 108% | 107% | 99.8% | 112% | 84.3% | 27.2% | 26.8% | 27.4% | 101% | 95.7% | 102% | 96.5% | 96.6% | 111% | 109% | 71% | 20.9% | 18.7% | 14.5% | 95.8% | 105% | 100% | 107% | 107% | 108% | 115% | 102% | 26.3% | 25.2% | 18.8%
Cc1cn(CCN2CCN(c3ccccc3-c3cc(C#N)cc(C(=O)NCCCN4CCCC4)c3)CC2)c2ccccc12 | 103% | 111% | 111% | 121% | 148% | 130% | 127% | 134% | 85.3% | 35.3% | 10.7% | 102% | 110% | 115% | 109% | 125% | 119% | 119% | 112% | 108% | 38.4% | 22.7% | 119% | 102% | 109% | 119% | 120% | 110% | 124% | 112% | 96.4% | 44.5% | 25.5%
CNCC(O)C(O)C(O)C(O)CO.O=C(O)c1ccc(-c2cc3cccnc3c(-c3ccc4nonc4c3)n2)cc1 | 105% | 110% | 115% | 111% | 121% | 126% | 112% | 122% | 112% | 110% | 76.7% | 118% | 119% | 119% | 118% | 115% | 112% | 125% | 106% | 117% | 119% | 102% | 99% | 105% | 124% | 120% | 114% | 111% | 127% | 111% | 111% | 118% | 74.4%
CN(C)C[C@@H]1CC[N]2C=C(C3=C2C=CC=C3)C/4=C(/C(=O)NC4=O)C5=C[N](CCO1)C6=C5C=CC=C6 | 88.8% | 111% | 109% | 96.6% | 102% | 91.4% | 94% | 88.7% | 95.4% | 85.3% | 27.7% | 98.3% | 85.9% | 89.3% | 87.4% | 91.7% | 92.9% | 93% | 87.5% | 86.1% | 83.5% | 73.3% | 90.6% | 84.2% | 99.8% | 93.4% | 99.6% | 97.3% | 92.3% | 85.8% | 83.7% | 77.7% | 67.7%
CN[S+](=O)([O-])CCc1ccc2[nH]cc(C3CCN(C)CC3)c2c1 | 91.2% | 95.9% | 91.3% | 114% | 112% | 107% | 106% | 101% | 98.6% | 108% | 107% | 83% | 84.2% | 91.3% | 86.6% | 99.7% | 89.5% | 87.6% | 92.7% | 102% | 87.8% | 96.4% | 91.5% | 83.4% | 90.3% | 95.4% | 93.3% | 104% | 105% | 96.2% | 102% | 85.3% | 89.3%
COC1=CC=C(C=C1)C2CC(=N/N2C3=CC=C(C=C3)[S+](N)([O-])=O)\C4=CC=CC=C4 (stereo not given) | 82.7% | 91.2% | 98.8% | 92.9% | 97.4% | 97.1% | 94.9% | 56.1% | 24.4% | 3.71% | 1.86% | 85.9% | 85.1% | 92.5% | 102% | 102% | 98.3% | 94.6% | 89.5% | 35.2% | 4.7% | 2.12% | 82.7% | 93.8% | 85.6% | 103% | 98% | 86.2% | 93.3% | 59% | 43.3% | 4.24% | 1.96%
C[C@@H]1CC[C@@]2(OC1)OC1CC3C4CC=C5CC(O)CCC5(C)C4CCC3(C)C1[C@@H]2C (stereo not given in full) | 95.6% | 84.6% | 105% | 114% | 113% | 112% | 116% | 127% | 117% | 44.5% | 16.5% | 89.7% | 87.3% | 95% | 95.3% | 96% | 90.6% | 93% | 98.5% | 90.1% | 48.5% | 11.8% | 90.6% | 83.5% | 97% | 87.6% | 87.4% | 93.1% | 91.9% | 90.8% | 88.3% | 73.4% | 29.1%
O=C1CCc2ccc(OCCCCN3CCN(c4cccc(Cl)c4Cl)CC3)cc2N1 | 115% | 98.6% | 119% | 77.7% | 96.1% | 109% | 89.2% | 91.6% | 106% | 107% | 85.1% | 91.2% | 91.7% | 94.7% | 86.6% | 92.9% | 89.5% | 96.6% | 97.2% | 81.6% | 93.6% | 77.6% | 106% | 83.6% | 97.7% | 75.2% | 96.1% | 93.6% | 91.5% | 98.1% | 91.1% | 97.5% | 78.7%
COc1cc([C@@H]2c3cc4c(cc3[C@@H](O[C@@H]3O[C@@H]5CO[C@@H](c6cccs6)O[C@H]5[C@H](O)[C@H]3O)[C@H]3COC(=O)[C@H]23)OCO4)cc(OC)c1O | 92.7% | 97.4% | 115% | 111% | 103% | 89.6% | 97.7% | 34.3% | 116% | 31.1% | 13.8% | 85.3% | 85.6% | 89.7% | 97.2% | 81.7% | 99.3% | 91.2% | 22.9% | 101% | 22.4% | 12.7% | 89.5% | 82.9% | 91% | 89.6% | 93.2% | 90.6% | 101% | 32.4% | 99.3% | 25.2% | 16.7%
N#CC(=C(/N)Sc1ccccc1N)/C(C#N)=C(\N)Sc1ccccc1N | 118% | 119% | 122% | 128% | 134% | 140% | 130% | 101% | 107% | 90.8% | 71% | 115% | 115% | 121% | 120% | 120% | 121% | 118% | 117% | 114% | 120% | 97.8% |  |  |  |  |  |  |  |  |  |  | 
CCN(CC)CCN1C(=O)\C(=N/C2=CC=CC=C12)CC3=CC=C(OC)C=C3 | 111% | 117% | 99.1% | 118% | 119% | 110% | 115% | 115% | 109% | 113% | 116% | 96.1% | 101% | 117% | 109% | 97.4% | 96.6% | 107% | 102% | 111% | 101% | 97.7% | 98.4% | 102% | 113% | 111% | 115% | 119% | 119% | 121% | 111% | 101% | 102%
C=CCn1c(=O)c2cnc(Nc3ccc(N4CCN(C)CC4)cc3)nc2n1-c1cccc(C(C)(C)O)n1 | 125% | 116% | 123% | 122% | 125% | 96.2% | 52.1% | 31.8% | 24.3% | 28.1% | 29.2% | 118% | 117% | 138% | 128% | 140% | 132% | 122% | 36.9% | 18.5% | 17.9% | 18.6% |  |  |  |  |  |  |  |  |  |  | 
